Where “and” joins values, the source holds several entries; their conditions need not be identical. Equal values may be shown once. Entries after “also recorded” stand apart in the source; their conditions may differ. Where a name gives a salt, the structure may show the parent alone. Read-outs that look alike come from different tables or passages of the source. Each block holds one compound with its values, some of them ahead of it.
How the values were obtained:
[1] = molecular target: T1, rat Mrp2 (Rattus norvegicus, UniProt Q63120); settings: for effect on rat Mrp2-mediated CP-I transport in vitro: 15 min, result in words
T1 sequence (Q63120 whole entry): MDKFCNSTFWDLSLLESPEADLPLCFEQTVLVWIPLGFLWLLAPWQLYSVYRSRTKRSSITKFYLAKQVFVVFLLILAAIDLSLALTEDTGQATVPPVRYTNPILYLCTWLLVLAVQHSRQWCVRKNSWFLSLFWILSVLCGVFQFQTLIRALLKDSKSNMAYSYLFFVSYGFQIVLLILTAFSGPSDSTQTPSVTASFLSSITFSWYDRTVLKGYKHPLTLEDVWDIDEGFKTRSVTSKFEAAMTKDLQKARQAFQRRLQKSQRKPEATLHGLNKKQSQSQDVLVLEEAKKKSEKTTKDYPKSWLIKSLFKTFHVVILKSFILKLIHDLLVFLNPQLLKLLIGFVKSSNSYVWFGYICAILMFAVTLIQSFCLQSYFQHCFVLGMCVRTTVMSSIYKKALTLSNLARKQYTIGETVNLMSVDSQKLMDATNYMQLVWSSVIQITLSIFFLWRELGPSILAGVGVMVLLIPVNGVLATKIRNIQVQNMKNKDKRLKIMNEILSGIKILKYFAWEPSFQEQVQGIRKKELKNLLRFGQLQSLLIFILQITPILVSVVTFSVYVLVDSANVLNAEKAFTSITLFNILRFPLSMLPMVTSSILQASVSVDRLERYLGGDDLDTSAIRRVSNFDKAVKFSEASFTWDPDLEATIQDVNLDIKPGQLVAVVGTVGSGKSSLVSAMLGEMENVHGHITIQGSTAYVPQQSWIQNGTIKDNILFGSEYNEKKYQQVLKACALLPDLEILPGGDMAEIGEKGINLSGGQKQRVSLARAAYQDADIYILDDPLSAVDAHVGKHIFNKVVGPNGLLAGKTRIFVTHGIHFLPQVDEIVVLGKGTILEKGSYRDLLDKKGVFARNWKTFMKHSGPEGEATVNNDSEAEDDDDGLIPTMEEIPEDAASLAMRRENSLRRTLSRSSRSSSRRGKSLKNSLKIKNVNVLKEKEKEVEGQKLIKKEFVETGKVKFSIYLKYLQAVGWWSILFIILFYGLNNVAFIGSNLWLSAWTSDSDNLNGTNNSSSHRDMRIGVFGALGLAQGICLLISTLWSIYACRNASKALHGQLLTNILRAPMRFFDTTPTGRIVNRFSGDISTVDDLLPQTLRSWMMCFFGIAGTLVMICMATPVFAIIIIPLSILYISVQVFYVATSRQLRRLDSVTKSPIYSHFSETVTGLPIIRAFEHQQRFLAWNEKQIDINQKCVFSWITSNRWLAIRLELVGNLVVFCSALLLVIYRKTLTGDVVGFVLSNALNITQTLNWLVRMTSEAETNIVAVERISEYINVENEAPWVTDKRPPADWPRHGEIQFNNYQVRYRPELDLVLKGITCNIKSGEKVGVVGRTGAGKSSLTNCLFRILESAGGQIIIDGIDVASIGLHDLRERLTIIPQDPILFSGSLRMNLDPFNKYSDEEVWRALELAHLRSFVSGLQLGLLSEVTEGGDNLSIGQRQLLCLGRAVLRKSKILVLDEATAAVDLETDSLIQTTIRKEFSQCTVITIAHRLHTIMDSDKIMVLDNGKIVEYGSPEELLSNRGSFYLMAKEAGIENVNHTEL
Experimental: Rat Mrp2-mediated CP-I transport was measured in inside-out membrane vesicles. Mrp2 vesicle protein (50 µg/well) were preincubated with modulators at above reported concentrations at 37 °C and reaction was started by adding CP-I (5 µM) and incubated for 15 min. NP; not performed. For more on experimental details refer to Section 2.3. Dotted line represents basal level (100%) of CP-I uptake in control wells in the presence of ATP with no modulators added. All data values presented as mean and SD of single experiment performed in triplicate wells.

[2] = molecular target: T1, rat Mrp2; settings: for % Net decrease in ATP-dependent CP-I uptake in presence of bilirubin: bilirubin 10 µM, uptake with modulator alone as control, duplicate wells
Experimental: Figure 3 Effect of bilirubin on the transport of CP-I using rat Mrp2 vesicles in the presence and absence of modulators. Rat Mrp2 vesicles (50 µg/well) were preincubated with and without bilirubin (10 µM) and modulators for 3 min at 37 °C. % Net decrease in ATP-dependent CP-I uptake in presence of bilirubin was calculated by taking CP-I uptake values in presence of modulators as control. All data values presented as mean of single experiment performed in duplicate wells.

[3] = Plasma and liver concentrations of modulators after i.v. infusion in rats; type: in vivo; settings: Sprague-Dawley, rat; for Kp at 3 h: liver at terminal time point (3 h); for Cmax: plasma, iv
[4] = in vitro; settings: tissue homogenate
[5] = rat, in vivo
[6] = tested on: human MRP2; settings: cited from earlier work; for stimulation of CP-I transport in human MRP2 vesicles / effect on MRP2 when CP-I is used as probe substrate: result in words ref 10
[7] = molecular target: T2, Mrp2 (Rattus norvegicus, UniProt Q63120); experiment: Biliary and renal secretion of endogenous CP-I and CP-III in bile duct cannulated rats before and after modulators; settings: for Bile Flow: cumulative volume / total collection time, mean ± SD, three animals; for Mrp2-mediated CP-I transport in vivo (biliary clearance, cumulative amount in bile) before and after treatment: bile duct cannulated rats
T2 sequence (Q63120 whole entry): as above

[8] = molecular target: T1, rat Mrp2
[9] = molecular target: T2, Mrp2; settings: in vivo
[10] = tested on: Mrp2; design: method as in PMID 27964938; settings: in the presence of metformin, plasma exposure not affected ref 9; cited from earlier work
[11] = tested on: flurbiprofen metabolism in liver microsome; design: method as in PMID 11457649, PMID 9521735; settings: in presence of dapsone ref 22, 23; cited from earlier work
[12] = design: method as in PMID 11457649, PMID 9521735; settings: humans, in presence of dapsone ref 22, 23; cited from earlier work
[13] = tested on: Oatp; experiment: CP-I uptake in suspended rat hepatocytes with and without rifamycin SV; type: cell-based; settings: rifamycin SV 1 mM, CP-I 0.5 µM, 37 °C, result in words
[14] = tested on: Mrp2; design: method as in PMID 19118132; settings: cited from earlier work
[15] = tested on: Mrp2; design: method as in PMID 15194559; settings: rats ref 17; cited from earlier work

Compound: O=C1c2c(O)ccc(O)c2C(=O)c2c(NCCNCCO)ccc(NCCNCCO)c21 [Mitoxantrone, Mitoxantrone hydrochloride]
concentration from which in vitro stimulation started [1]: ≥ 1 µM
effect on rat Mrp2-mediated CP-I transport in vitro ([1]; CP-I 5 µM): strongest stimulator; also recorded: stimulated
concentrations giving inhibition of Mrp2 mediated CP-I transport ([1]; bell-shaped curve, higher concentrations): > 250 µM
concentrations giving stimulation of Mrp2 mediated CP-I transport ([1]; bell-shaped curve, lower concentrations): up to 250 µM
% Net decrease in ATP-dependent CP-I uptake in presence of bilirubin ([2]; modulator 200 µM): 34% and 42%
concentration at 3 h ([3]; intravenous, 6 mg/kg i.v., liver homogenate, LC-MS/MS, read-out: Liver Total Concentrations): 854 µM
concentration at 3 h ([3]; intravenous, 15 mg/kg i.v., liver homogenate, LC-MS/MS, read-out: Liver Total Concentrations): 950 µM
concentration at 3 h ([3]; liver (unbound), intravenous, 6 mg/kg i.v., Fu,liver x total liver concentration, read-out: Liver Unbound Concentrations): 0.26 µM
Kp at 3 h ([3]; liver/plasma, intravenous, 6 mg/kg i.v., read-out: Liver to Plasma Ratio): 199
Kp at 3 h ([3]; liver/plasma, intravenous, 15 mg/kg i.v., read-out: Liver to Plasma Ratio): 202
Cmax ([3]; 6 mg/kg i.v.): 4.3 µM
Cmax ([3]; 15 mg/kg i.v.): 4.7 µM
fraction unbound at 6 h, 10 µM [4]: 0.0003
toxicity limiting the dose [5]: observed toxicity
stimulation of CP-I transport in human MRP2 vesicles [6]: significant stimulation
Bile Flow ([7]; after mitoxantrone 6 mg/kg i.v.): 1.05 ± 0.11 mL/h
Bile Flow ([7]; after mitoxantrone 15 mg/kg i.v.): 1.38 ± 0.56 mL/h
Mrp2-mediated CP-I transport in vivo (biliary clearance, cumulative amount in bile) before and after treatment ([7]; result in words): no significant difference
biliary excretion of CP-I and III ([7]; mitoxantrone 6 mg/kg, between 0.25 and 0.5 h, result in words): significant increase
biliary secretion of CP-I ([7]; mitoxantrone 15 mg/kg, from 0.33 to 1.25 h, result in words): decreased

urinary clearance relative to CP-I ([7]; control experiments): three-fold higher
basal level excreted in rat bile in 2 h ([7]; endogenous, no modulator): ~1200 pmol
plasma AUC (0–2 h), basal ([7]; endogenous, no modulator): ~9.5 nM·h
basal plasma levels relative to CP-I ([7]; rats): three-four times higher
Compound: coproporphyrin-III [CP-III]

Km [8]: 15 ± 6 µM
apparent Vmax ([8]; CP-I uptake, rat Mrp2 membrane vesicles, 37 °C, 15 min, mean ± SD): 161 ± 20 pmol/min/mg protein
ATP over AMP ratio of CP-I uptake ([8]; rat Mrp2 membrane vesicles): 23
average biliary clearance relative to CP-III [9]: four-fold higher
basal level excreted in rat bile in 2 h [9]: about 600 pmoles
Compound: coproporphyrin-I [CP-I]
Km [6]: 7.7 µM

Compound: CCc1oc2ccccc2c1C(=O)c1cc(Br)c(O)c(Br)c1 [benzbromarone]
effect on MRP2 when CP-I is used as probe substrate [6]: inhibitors

Compound: CN(C)C(=N)N=C(N)N [metformin]
increase of atorvastatin liver concentration [10]: 1.64 fold

Compound: Nc1ccc(S(=O)(=O)c2ccc(N)cc2)cc1 [dapsone]
stimulation of flurbiprofen metabolism [11]: two-fold
increase in flurbiprofen clearance [12]: 10%

effect on CP-I uptake in isolated rat hepatocytes [13]: rifamycin sensitive
Compound: CO[C@H]1/C=C/O[C@@]2(C)Oc3c(C)c(O)c4c(O)c(cc(O)c4c3C2=O)NC(=O)/C(C)=C\C=C\[C@H](C)[C@H](O)[C@@H](C)[C@@H](O)[C@@H](C)[C@H](OC(C)=O)[C@@H]1C [rifamycin, rifamycin SV]

Compound: COc1ccc2c(c1)c(CC(=O)O)c(C)n2C(=O)c1ccc(Cl)cc1 [indomethacin]
decrease of E17βG half-life ([14]; rats ref 16): 40%
effect on E17βG biliary clearance ([14]; rats, result in words ref 16): increases
effect on MRP2 when CP-I is used as probe substrate [6]: inhibitors

effect on rat Mrp2-mediated CP-I transport in vitro ([1]; CP-I 5 µM): stimulated
stimulation of Mrp2 mediated transport of CP-I ([1]; modulator 1 µM, CP-I 5 µM): > 1.5 fold
% Net decrease in ATP-dependent CP-I uptake in presence of bilirubin ([2]; modulator 100 µM): 17% and 12%
concentration at 2 h ([3]; intravenous, 1 mg/kg i.v., liver homogenate, LC-MS/MS, read-out: Liver Total Concentrations): 197 µM
concentration at 2 h ([3]; liver (unbound), intravenous, 1 mg/kg i.v., Fu,liver x total liver concentration, read-out: Liver Unbound Concentrations): 1.86 µM
Kp at 2 h ([3]; liver/plasma, intravenous, 1 mg/kg i.v., liver at terminal time point (2 h), read-out: Liver to Plasma Ratio): 1.2
Cmax ([3]; 1 mg/kg i.v.): 165 µM
fraction unbound at 6 h, 10 µM [4]: 0.0094
Bile Flow ([7]; after progesterone 1 mg/kg i.v.): 1.62 ± 0.39 mL/h
Mrp2-mediated CP-I transport in vivo (biliary clearance, cumulative amount in bile) before and after treatment ([7]; result in words): did not stimulate
biliary secretion of CP-III ([7]; progesterone 1 mg/kg, from 0.17 to 1.5 h, result in words): significant decrease
Compound: CC(=O)[C@H]1CC[C@H]2[C@@H]3CCC4=CC(=O)CC[C@]4(C)[C@H]3CC[C@]12C [Progesterone, progesterone]
stimulation of CP-I transport in human MRP2 vesicles [6]: significant stimulation

effect on in vitro stimulation of Mrp2-mediated CP-I transport ([2]; 10 µM, result in words): suppressed
Compound: C=CC1=C(C)/C(=C/c2[nH]c(Cc3[nH]c(/C=C4\NC(=O)C(C)=C4C=C)c(C)c3CCC(=O)O)c(CCC(=O)O)c2C)NC1=O [bilirubin]

Compound: CC1(C)S[C@@H]2[C@H](NC(=O)Cc3ccccc3)C(=O)N2[C@H]1C(=O)O [benzyl penicillin]
transient enhancement of biliary clearance of glutathione (GSH) [15]: about four-fold
